Measurements published in patent US6593324B2, “Dervatives of quinoline as alpha-2 antagonists” (Orion Corporation, priority 2000, dated 2003).

Tests used:
male NMRI mice = test: Antagonism of dexmedetomidine-induced locomotor inhibition; format: in vivo; settings: various doses 20 min before dexmedetomidine 50 nmol/kg s.c.; activity measured 20 min after; atipamezole effective at 0.3 and 1.0 μmol/kg s.c. (p<0.01); FIG. 1
From the text: Dexmedetomidine and atipamezole are very potent and specific alpha-2 adrenoceptor agonists and antagonists, respectively, which lack alpha-2 subtype selectivity (H. Scheinin et al., European Journal of Pharmacology, Molecular Section, vol.151(1), 1988, p.35-42). The alpha-2 agonist-induced sedation is known to be an alpha-2A-mediated phenomenon that can be antagonised by alpha-2 antagonists (J. Sallinen et al., Mol. Pharmacol. Vol.51, 1997, p.36-46, and A. Haapalinna et al., Naunyn-Schimiedeberg's Arch. Pharmacol. Vol.356, 1997, p.570-582). The sedative effect of alpha-2 agonists in mice is measured by the inhibition on locomotor activity. Therefore, we compared the ability of Compound I and atipamezole to antagonise the dexmedetomidine-induced locomotor inhibition to evaluate the in vivo alpha-2A adrenoceptor antagonism (and alpha-2C selectivity) of these compounds.
Spontaneous locomotor activity of a total of 76 male NMRI mice (B&K, Sweden) was measured by placing individual animals into a polypropylene animal cage (38×22×15 cm). The cages were surrounded with an infrared photobeam frame system designed for activity measurements (Photobeam Activity System PAS, Cage Rack, San Diego Instruments, San Diego, Calif., USA). […] Spontaneous locomotor activity was measured 20 min after dexmedetomidine injection.

test animals = settings: literature report; cited from earlier work
Balb/c mice = test: Mouse forced swimming test; format: in vivo; settings: 0.3 μmol/kg 40 min before test; activity between 2 and 6 min; Compound 1 p=0.013, atipamezole p=0.52; FIG. 2
From the text: This can be observed for example employing the forced swimming test, in which a rat or mouse is put into a water-filled cylinder. After a vigorous period of attempts to escape animals adopt an immobile floating posture; the extent of the immobile period is monitored and can be reduced by antidepressants and stress-protective agents. Transgenic mice that lack functional alpha-2C adrenoceptor tolerated swim-stress better than their similarly treated wild-type controls (J. Sallinen et al., Mol. Psychiatry, vol.4, 1999, p.443-452). Therefore, an increase in the forced swimming activity can be used as a measure of in vivo alpha-2C selective antagonism of a compound.
The forced swim test was conducted as originally described employing the stress sensitive (J. Crawley and L. Davis, Brain Research Bulletin, vol.8, 1982, p.609-612, and U.S. Pat. No. 5,902,807) Balb/c mouse strain (B&K, Sweden). The mice were administered either with vehicle (0.1% DMSO, 5 ml/kg subcutaneously), Compound 10.3 μmol/kg, or atipamezole 0.3 μmol/kg 40 min before putting the mice into a vessel (10 cm diameter, 18.5 cm height, filled with 25° C. water up to 8 cm height). The cumulative activity of each mouse was measured between 2 and 6 min after introduction to the vessel. Only vigorous attempts to escape (climbing) were registered. The mice (a total of 96) were tested only once.

brain = settings: employed doses of atipamezole; literature report; cited from earlier work

| Structure (SMILES) | antagonism of dexmedetomidine-induced sedation (locomotor inhibition) (male NMRI mice) | stress-protective effect (test animals) | stress-protective effect: forced swimming activity (climbing) vs vehicle (Balb/c mice) | neurochemical effect: noradrenaline release in brain (brain) |
| --- | --- | --- | --- | --- |
| CCC1(c2cnc[nH]2)Cc2ccccc2C1 [atipamezole] | inhibited dexmedetomidine-induced sedation | did not have a clear stress-protective effect | did not have any clear effect on the activity | stimulate noradrenaline release in brain |
| CN1CCN(c2ccc(Nc3c4ccccc4nc4ccccc34)cc2)CC1 [Compound 1, Acridin-9-yl-[4-(4-methylpiperazin-1-yl)-phenyl]amine] | did not antagonise the alpha-2-agonist-induced sedation at all |  | tolerated clearly better stress-induced propagation of behavioural despair |  |
